Measurements published in patent publication US20030220252A1, “Method for treating a patient with neoplasia by treatment with a gonadotropin releasing hormone analog” (priority 1998, published 2003).

What was measured:
[1] = tested on: PDE peak B (novel cGMP-specific PDE); experiment: cGMP hydrolysis by PDE peak B isolated from SW-480 cells; assay type: biochemical, human
cGMP-PDE = cGMP-PDE inhibition assay, enzyme purified from HT-29 tumor cells; assay type: biochemical, human; conditions: for % Inhibition at 100 μM (cGMP PDE): test compounds
PDE peak A (PDE5) = target: T1, PDE peak A (PDE5) (Homo sapiens, UniProt O76074); experiment: cGMP hydrolysis by PDE peak A isolated from SW-480 cells; assay type: biochemical
T1 construct: SW-480 cells are collected and homogenized; endogenous in cells; host or cells: SW-480 human colon adenocarcinoma cells; supernatant of homogenate fractionated on DEAE-Trisacryl M

HT-29 cells = experiment: Apoptosis and necrosis by morphology (acridine orange/ethidium bromide) in HT-29 cells; assay type: cell-based, human; conditions: for apoptotic and necrotic cell death, in words: HT-29 cells treated for six days
Method: Treatment of cells with test compounds involves either pre- or post-confluent cultures and treatment for two to seven days at various concentrations of the compound in question. Apoptotic cells are measured by combining both the attached and “floating” compartments of the cultures. The protocol for treating tumor cell cultures with sulindac and related compounds to obtain a significant amount of apoptosis has been described in the literature. (See, Piazza, G. A., et al., Cancer Research, 55:3110-16, 1995, which is incorporated herein by reference). The novel features include collecting both floating and attached cells, identification of the optimal treatment times and dose range for observing apoptosis, and identification of optimal cell culture conditions.
Following treatment with a test compound, cultures can be assayed for apoptosis and necrosis by fluorescent microscopy following labeling with acridine orange and ethidium bromide. The method for measuring apoptotic cell number has previously been described by Duke & Cohen, “Morphological And Biochemical Assays Of Apoptosis,” Current Protocols In Immunology, Coligan et al., eds., 3.17.1-3.17.16 (1992, which is incorporated herein by reference).
For example, floating and attached cells can be collected, and aliquots of cells can be centrifuged. The cell pellet can then be resuspended in media and a dye mixture containing acridine orange and ethidium bromide. The mixture can then be examined microscopically for morphological features of apoptosis.
Reference compounds and test compounds were analyzed for their cGMP-specific PDE inhibitory activity in accordance with the protocols for the assay, supra. […] Apoptotic and necrotic cell death was determined as previously described (Duke and Cohen, In: Current Protocols in Immunology, 3.17.1-3.17.16, New York, John Wiley and Sons, 1992). […]
The apoptosis inducing activity for a series of phosphodiesterase inhibitors was determined. […] Apoptosis and necrosis were determined morphologically after acridine orange and ethidium bromide labeling in accordance with the assay described, supra.

[2] = Side effects of exisulind on administration; assay type: in vivo; conditions: reversible
Excerpt: This effect is reversible, and liver enzymes return to normal levels when the administered dose of exisulind returns to the traditionally recommended level or when treatment is discontinued. The most serious side effects of GnRH analogs, on the other hand, are related to decreases serum levels of estrogen and testosterone.

[3] = tested on: premalignant lesions in mouse mammary gland organ culture; experiment: Mammary gland organ culture model; assay type: cell-based
Method: For example, female BALB/c mice can be treated with a combination of estradiol and progesterone daily, in order to prime the glands to be responsive to hormones in vitro. The animals are sacrificed and thoracic mammary glands are excised aseptically and incubated for ten days in growth media supplemented with insulin, prolactin, hydrocortisone, and aldosterone. DMBA (7,12-dimethylbenz(a)anthracene) is added to medium to induce the formation of premalignant lesions. Fully developed glands are then deprived of prolactin, hydrocortisone, and aldosterone, resulting in the regression of the glands but not the premalignant lesions.
The test compound is dissolved in DMSO and added to the culture media for the duration of the culture period. At the end of the culture period, the glands are fixed in 10% formalin, stained with alum carmine, and mounted on glass slides. The extent of the area occupied by the mammary lesions can be quantitated by projecting an image of the gland onto a digitation pad. The area covered by the gland is traced on the pad and considered as 100% of the area. The space covered by each of the unregressed structures is also outlined on the digitization pad and quantitated by the computer.
The incidence of forming mammary lesions is the ratio of the glands with mammary lesions to […]. The incidence of mammary lesions in test compound treated glands is compared with that of the untreated glands.
Mammary gland organ culture experiments were performed as previously described (Mehta and Moon, Cancer Research, 46: 5832-5835, 1986). […] The data support the hypothesis that cyclooxygenase inhibition is not necessary for the anti-neoplastic properties of desired compounds.

[4] = tested on: HT-29 human colon carcinoma cell line; experiment: Growth inhibition of HT-29 cells (SRB assay; trypan blue count); assay type: cell-based
[5] = tested on: cGMP levels in HT-29 cells; experiment: cGMP levels in HT-29 cells by radioimmunoassay; assay type: cell-based, human; conditions: HT-29 cells treated 30 minutes
[6] = tested on: cAMP levels in HT-29 cells; experiment: cAMP levels in HT-29 cells by radioimmunoassay; assay type: cell-based, human; conditions: HT-29 cells treated 30 minutes
Excerpt: It has been observed that a compound which is useful in the practice of this invention (i.e., one that selectively induces apoptosis in neoplastic cells, but not substantially in normal cells) follows a time course consistent with cGMP-specific PDE inhibition. […] The intracellular targets of these drug actions are being studied further, but current data support the concept that the initial rise in cGMP content and the subsequent fall in cAMP content precede apoptosis in neoplastic cells exposed to test compounds useful in this invention. To determine the cyclic AMP content in cell extracts, radioimmunoassay techniques similar to those described above for cGMP are used.

COX = COX inhibition; assay type: biochemical; conditions: 100 μM

SMILES	inhibition / sensitivity of the new cGMP-PDE (peak B), in words [1]	% Inhibition at 100 μM (cGMP PDE) (cGMP-PDE)	inhibition of peak A (PDE5), in words (PDE peak A (PDE5))	further results
CCOC(=O)C1=C[C@]2(CC)CCCN3CCc4c(n1c1ccccc41)[C@@H]32 [Vinpocetine]	relatively insensitive	–	–	–
CC1=C(CC(=O)O)c2cc(F)ccc2/C1=C\c1ccc(Cl)cc1 [C, (Z)-5-Fluoro-2-methyl-1-(p-chlorobenzylidene)-3-acetic acid]	–	<25%	–	–
CC1=C(CC(=O)O)c2cc(F)ccc2/C1=C\c1ccc(S(C)(=O)=O)cc1 [Exisulind, (Z)-5-fluoro-2-methyl-1-[[4-(methylsulfonyl)phenyl]methylene]indene-3-yl acetic acid]	inhibits both PDE5 and the new cGMP-PDE	–	inhibits both PDE5 and the new cGMP-PDE	apoptotic and necrotic cell death, in words (HT-29 cells): capable of causing apoptotic cell death without inducing necrosis; % Inhibition at 10 μM (cGMP PDE) (cGMP-PDE): 39%; effect at doses higher than the recommended therapeutic levels [2]: elevated levels of liver enzymes; inhibition of premalignant lesions in mammary gland organ culture, in words [3]: effectively inhibit the formation of premalignant lesions
CCN(CC)CCSC12CC(=O)OC1(C)/C(=C/c1ccc(S(C)(=O)=O)cc1)c1ccc(F)cc12 (racemic) [A, rac-threo-(E)-1-(N,N′-diethylaminoethanethio)-1-(butan-1′,4′-olido)-[3′,4′:1,2]-6-fluoro-2-methyl-3-(p-methylsulfonylbenzylidene)-indan]	–	<25%	–	Growth inhibitory activity, % Inhibition at 100 μM ([4]; 100 μM single dose): 68%
CSc1ccc(/C=C2/C(C)=C(CC(=O)O)c3cc(F)ccc32)cc1 [Sulindac sulfide]	competitively inhibit	–	competitively inhibit	increase of the levels of cGMP [5]: greater than 50%; growth inhibition by counting viable cells after trypan blue staining, in words ([4]; 120 μM, time course): capable of inhibiting tumor cell growth; apoptosis by morphological determination, in words (HT-29 cells; 120 μM, time course): increase in apoptosis; apoptotic and necrotic cell death, in words (HT-29 cells): capable of causing apoptotic cell death without inducing necrosis; % Inhibition at 10 μM (cGMP PDE) (cGMP-PDE): 97%; effect on levels of cAMP, in words [6]: unaffected; inhibition of premalignant lesions in mammary gland organ culture, in words [3]: inactive
CC1(C)C(=O)Nc2ccc(C3=NNC(=O)CC3)cc21 [Indolidan]	relatively insensitive	–	–	–
CCCc1nn(C)c2c(=O)[nH]c(-c3cc(S(=O)(=O)N4CCN(C)CC4)ccc3OCC)nc12 [Sildenafil]	relatively insensitive	–	inhibited activity of peak A	–
CC1=C(CC(=O)O)c2cc(F)ccc2/C1=C/c1ccc([S+](C)[O-])cc1 (stereo not drawn) [sulindac sulfoxide]	–	–	–	inhibition of premalignant lesions in mammary gland organ culture, in words [3]: effectively inhibit the formation of premalignant lesions
CCCOc1ccccc1-c1nc2nn[nH]c2c(=O)[nH]1 [Zaprinast]	relatively insensitive	–	–	–
COc1cc(C=C2C(C)=C(CC(=O)O)c3cc(F)ccc32)cc(OC)c1OC [Compound B, (Z)-5-Fluoro-2-methyl-1-(3,4,5-trimethoxybenzylidene)-3-acetic acid]	–	<25%	–	COX inhibition, in words (COX): did not inhibit COX
O=C([O-])C1CCN(c2nc(NCc3ccc4c(c3)OCO4)c3cc(Cl)ccc3n2)CC1.[Na+] [Compound E4021]	relatively insensitive	–	–	–
COc1ccc(C2CNC(=O)C2)cc1OC1CCCC1 (stereo not drawn) [Rolipram]	relatively insensitive	–	–	effect on levels of cAMP, in words [6]: increased cAMP levels
COc1cc(/C=C2/C(C)=C(CC(=O)NCc3ccccc3)c3cc(F)ccc32)cc(OC)c1OC [Compound E, (Z)-5-Fluoro-2-methyl-1-(3,4,5-trimethoxybenzylidene)-3-indenylacetamide, N-benzyl]	competitively inhibit	75%	competitively inhibit	COX inhibition, in words (COX): did not inhibit COX
